In PubChem BioAssay (NCI) one finds GI50 and TGI data, which are given here for 13 compounds.

What all share (assay): DTP human tumour cell line panel, 48 h
The test system of experiment [1] is A549 NSCLC.
Experiment [2] relates to HCT-116 colon.
Experiment [3] relates to HL-60(TB) leukemia.
Experiment [4] deals with HS 578T breast.
In experiment [5] the test system is HT29 colon.
The test system of experiment [6] is MDA-MB-435.
Experiment [7] concerns OVCAR-5 ovarian.
The subject of experiment [8] is SF-268 CNS.

Molecules are shown by their SMILES.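 The compound was tested at five concentrations on cells cultured in 96-well plates, with a 48-hour exposure period. GI50 marks 50% less growth. The concentration for full growth arrest is given as TGI.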

Take `Cc1cc(N(CCCl)CCCl)ccc1C=Nc1ccc2ccccc2c1`: the GI50 was 14.2 µM in experiment [1]; 38 µM in experiment [2]; 8.6 µM in experiment [3]; 34.3 µM in experiment [4]; more than 85.3 µM in experiment [5]; 53.3 µM in experiment [6]. Moreover, the GI50 is 2.52 µM in experiment [7] and 15.8 µM in experiment [8]. In addition, the TGI in experiment [1] is more than 100 µM; in experiment [2], more than 100 µM; in experiment [3], more than 68.6 µM; in experiment [4], more than 100 µM; in experiment [5], more than 100 µM; in experiment [6] it was more than 100 µM. The TGI in experiment [7] and in experiment [8] was more than 100 µM throughout.

For `CC1(C)[C@@H](OC(=O)CCC(=O)O)CC[C@]2(C)[C@H]3C(=O)C=C4[C@@H]5C[C@@](C)(C(=O)O)CC[C@]5(C)CC[C@@]4(C)[C@]3(C)CC[C@@H]12`, the GI50 in experiment [1] was 61 µM; in experiment [2] it was 51.8 µM; in experiment [3], 54.6 µM; in experiment [4] it was 49.6 µM; in experiment [5], 56.1 µM; in experiment [6], 58.2 µM. Besides, the values for the GI50 in experiment [7] and in experiment [8] were 83.2 µM and 55.7 µM, respectively. The TGI in experiment [1] amounted to 130 µM; in experiment [2], 75.6 µM; in experiment [3], 73.6 µM; in experiment [4], 253 µM; in experiment [5] it was 130 µM; in experiment [6], 98.8 µM. The total growth inhibition concentration (TGI) in experiment [7] is 125 µM; in experiment [8], 143 µM.

Consider `O=c1ssc(Cl)c1Cl`, for which the TGI is more than 10 µM in experiment [1]; more than 10 µM in experiment [2]; 6.04 µM in experiment [3]; more than 10 µM in experiment [4]; more than 10 µM in experiment [5]; more than 10 µM in experiment [6]. Further, the TGI in experiment [7] and in experiment [8] was more than 10 µM throughout.

For the compound `COc1ccc(/C=C/C(=O)c2ccc(OC)c(OC)c2)cc1O`, the GI50 in experiment [1] is 2.99 µM; in experiment [2], 3.35 µM; in experiment [3], 13.9 µM; in experiment [4], 11 µM; in experiment [5], 5.91 µM; in experiment [6], 5.22 µM. Also, the figures for the GI50 in experiment [7] and in experiment [8] were 4.94 µM and 8.74 µM, respectively. Further, the TGI was determined as 15.1 µM in experiment [1]; 12.8 µM in experiment [2]; 52.2 µM in experiment [3]; 90.9 µM in experiment [4]; 20.5 µM in experiment [5]; 23.5 µM in experiment [6]. For the same compound, the TGI in experiment [7] came out at 28.9 µM; in experiment [8], 29.1 µM.

Take `O=C1c2ccccc2-c2c1c1ccccc1c(=O)n2CCCNCCCCNCCCN1C(=O)c2ccccc2C2C(=O)c3ccccc3C21` (stereo not drawn): the GI50 is 0.0451 µM in experiment [1]; 0.0231 µM in experiment [2]; 0.203 µM in experiment [3]; 0.739 µM in experiment [4]; 0.0766 µM in experiment [5]; 0.805 µM in experiment [6]. Further, the GI50 is 0.57 µM in experiment [7] and 0.238 µM in experiment [8]. Moreover, the TGI was 0.881 µM in experiment [1]; 0.421 µM in experiment [2]; 1.17 µM in experiment [3]; 2.08 µM in experiment [4]; 8.75 µM in experiment [5]; 2.83 µM in experiment [6]. The TGI in experiment [7] was 1.19 µM; in experiment [8], 1.42 µM.

In the case of `Clc1ccc(OCc2nnc3n2N=C(c2ccc(Cl)cc2Cl)CS3)cc1`, the GI50 was 32.6 µM in experiment [1]; 13.2 µM in experiment [2]; 31.8 µM in experiment [3]; 29.1 µM in experiment [4]; 16 µM in experiment [5]; 22.4 µM in experiment [6]. Also, the results for the GI50 in experiment [7] and in experiment [8] were 22.1 µM and 17.4 µM, respectively. Also, the TGI in experiment [1] was more than 100 µM; in experiment [2], 30.4 µM; in experiment [3], more than 100 µM; in experiment [4] it was 71 µM; in experiment [5], 51.8 µM; in experiment [6], 59.8 µM. In addition, the results for the TGI in experiment [7] and in experiment [8] were 81 µM and 40.2 µM, respectively.

Turning to `COc1cc(C(=O)Nc2cc(OC)c3ccn(C)c3c2)cc2c1C[C@]1(C)CC[C@@H](O)C(C)(C)[C@H]1O2`, the TGI in experiment [1] amounted to 33.7 µM; in experiment [2] it was 17 µM; in experiment [3], 3.43 µM; in experiment [4], 2.05 µM; in experiment [5] it was 13.8 µM; in experiment [6], 3.38 µM. Besides, the TGI in experiment [7] and in experiment [8] was more than 100 µM each time. The GI50 in experiment [2] was 0.733 µM; in experiment [3], 0.074 µM; in experiment [4] it was 0.0673 µM; in experiment [5], 1.68 µM; in experiment [6], 1.01 µM; in experiment [7], 4.14 µM. In experiment [8], the GI50 was 1.99 µM.

For the compound `OCc1ccc(N2CCc3ccccc3C2)cc1Cl`, the GI50 in experiment [1] was 0.0604 µM; in experiment [2], less than 0.01 µM; in experiment [3], 17.9 µM; in experiment [4] it was 32.6 µM; in experiment [5], less than 0.02 µM; in experiment [6], 23.2 µM. Besides, the GI50 in experiment [7] was less than 0.0123 µM; in experiment [8] it was 32.5 µM. The TGI in experiment [1] was 7.59 µM; in experiment [2] it was 14.1 µM; in experiment [3], 61.4 µM; in experiment [4], more than 89.8 µM; in experiment [5], more than 55.4 µM; in experiment [6], more than 75.8 µM. The TGI was 0.069 µM in experiment [7] and more than 100 µM in experiment [8].

For the compound `Cc1ccc(Cl)c(Nc2ccccc2C(=O)O)c1Cl`, the GI50 in experiment [1] was 30.4 µM; in experiment [2], 19.6 µM; in experiment [3] it was 22.7 µM; in experiment [4] it was 25.7 µM; in experiment [5] it was 35.6 µM; in experiment [6], 23.8 µM. Moreover, the GI50 is 31.9 µM in experiment [7] and 31.8 µM in experiment [8]. Besides, the total growth inhibition concentration (TGI) in experiment [1] is more than 100 µM; in experiment [2], 44.9 µM; in experiment [3], 51.4 µM; in experiment [4], more than 100 µM; in experiment [5] it was more than 100 µM; in experiment [6], 85.3 µM. Further, the TGI in experiment [7] is 98.9 µM; in experiment [8], more than 100 µM.

With `COc1cc(-c2c(C#N)c(N)nc(N3CCOCC3)c2C#N)cc(OC)c1OC`, the GI50 in experiment [1] was more than 100 µM; in experiment [2] it was 86.5 µM; in experiment [3], more than 100 µM; in experiment [4] it was 94 µM; in experiment [5], more than 100 µM; in experiment [6] it was more than 100 µM. Further, the figures for the GI50 in experiment [7] and in experiment [8] were 27.2 µM and more than 100 µM, respectively. The TGI in experiment [1], in experiment [2], in experiment [3], in experiment [4], in experiment [5] and in experiment [6] was more than 100 µM throughout. For the same compound, the TGI in experiment [7] and in experiment [8] was more than 100 µM throughout.

Turning to `O=C1c2cccc(NCCN=Cc3ccccc3O)c2C(=O)c2c(NCCN=Cc3ccccc3O)cccc21`, the GI50 was 0.668 µM in experiment [1]; 0.387 µM in experiment [2]; 1.09 µM in experiment [3]; 0.838 µM in experiment [4]; 0.298 µM in experiment [5]; 1.16 µM in experiment [6]. In addition, the GI50 is 1.41 µM in experiment [7] and 0.349 µM in experiment [8]. In addition, the TGI worked out at 14.3 µM in experiment [1]; 3.4 µM in experiment [3]; 3.98 µM in experiment [4]; 1.93 µM in experiment [5]; 2.87 µM in experiment [6]; 5.43 µM in experiment [7]. Further, the TGI in experiment [8] is 1.46 µM.

As to `CCN(CC)C1CCC(Nc2c(C(C)=O)cnc3ccc(-c4ccc(O)c(Cl)c4)cc23)CC1` (stereo not drawn), the GI50 in experiment [1] is 0.58 µM; in experiment [2] it was 0.568 µM; in experiment [3], 0.15 µM; in experiment [4], 0.157 µM; in experiment [5], 1.64 µM; in experiment [6], 0.651 µM. Moreover, the GI50 in experiment [7] was 2.4 µM; in experiment [8], 0.487 µM. Further, the TGI was 5.52 µM in experiment [1]; 4.59 µM in experiment [2]; 1.51 µM in experiment [3]; 2.81 µM in experiment [4]; 3.51 µM in experiment [5]; 10.5 µM in experiment [6]. Also, the TGI in experiment [7] was more than 96.3 µM; in experiment [8], 12.2 µM.

`CC(=O)Oc1ccc(/C(=C(\C)c2ccc(Cl)cc2)c2ccc(OCCN3CCCCC3)cc2)cc1`: the GI50 in experiment [1] was 1.94 µM; in experiment [2] it was 1.34 µM; in experiment [3] it was 2.09 µM; in experiment [4], 2.14 µM; in experiment [5] it was 1.19 µM; in experiment [6] it was 1.7 µM. The GI50 in experiment [7] is 2.72 µM; in experiment [8], 1.82 µM. Besides, the TGI is 4.15 µM in experiment [1]; 2.72 µM in experiment [2]; 4.35 µM in experiment [3]; 4.82 µM in experiment [4]; 3.24 µM in experiment [5]; 3.26 µM in experiment [6]. The figures for the TGI in experiment [7] and in experiment [8] were 8.35 µM and 3.86 µM, respectively.

The GI50 is the concentration giving 50% growth inhibition. Usually TGI stands for the concentration giving total growth inhibition. Read a high TGI as less potent growth arrest.
